Here are results for eight compounds from patent publication EP4796538A1, “NOVEL QUINOXALINE COMPOUNDS, MANUFACTURING METHOD THEREOF, AND USES THEREOF” (Gachon University of Industry-Academic Cooperation …, priority 2023, dated 2025).

pIC50: −log10 of the molar value. Read-outs that look alike come from different tables or passages of the source.

The target of experiment [1] is T1, RET(G810R) (Homo sapiens, UniProt P07949, G810R).
T1 construct: purchased Reaction Biology Corp
The experiment can be described thus: Kinase panel inhibition, radiolabeled [γ-33P] ATP (Reaction Biology Corp). In kind it is biochemical. The conditions noted are these: for remaining activity at 0.1 µM: compound at 0.1 uM, ATP 10 µM, read-out: % Enzyme Activity (relative to DMSO controls) G810R.
Procedure: (§1) Using radiolabeled ATP ([γ-33P] ATP), the degree to which the substrate was replaced by a 33P-phosphorylated substrate was measured, and changes in kinase activity were determined from the measurement of the radiolabeled phosphorylated substrate.

Experiment [2] deals with T2, RET(V804M) (Homo sapiens, UniProt P07949, V804M).
T2 construct: purchased Reaction Biology Corp
Described as above. The class given is biochemical. Particulars: for remaining activity at 0.1 µM: compound at 0.1 uM, ATP 10 µM, read-out: % Enzyme Activity (relative to DMSO controls) V804M.
Procedure: as §1

For experiment [3], the target named is T3, RET(V804M)-KIF5B (Homo sapiens, UniProt P07949, V804M).
T3 sequence (P07949 713-1114 V804M): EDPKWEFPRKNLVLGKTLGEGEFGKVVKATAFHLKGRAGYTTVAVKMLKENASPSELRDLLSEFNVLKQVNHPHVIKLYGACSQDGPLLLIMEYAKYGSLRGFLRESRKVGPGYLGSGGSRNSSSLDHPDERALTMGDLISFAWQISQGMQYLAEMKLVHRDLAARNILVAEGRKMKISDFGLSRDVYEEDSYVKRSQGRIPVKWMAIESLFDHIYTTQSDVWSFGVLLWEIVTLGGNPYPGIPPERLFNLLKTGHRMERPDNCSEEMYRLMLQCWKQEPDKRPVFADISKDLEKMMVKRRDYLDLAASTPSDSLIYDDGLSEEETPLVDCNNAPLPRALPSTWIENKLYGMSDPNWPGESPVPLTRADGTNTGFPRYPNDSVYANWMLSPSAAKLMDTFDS
T3 sequence (P33176 2-575 partner): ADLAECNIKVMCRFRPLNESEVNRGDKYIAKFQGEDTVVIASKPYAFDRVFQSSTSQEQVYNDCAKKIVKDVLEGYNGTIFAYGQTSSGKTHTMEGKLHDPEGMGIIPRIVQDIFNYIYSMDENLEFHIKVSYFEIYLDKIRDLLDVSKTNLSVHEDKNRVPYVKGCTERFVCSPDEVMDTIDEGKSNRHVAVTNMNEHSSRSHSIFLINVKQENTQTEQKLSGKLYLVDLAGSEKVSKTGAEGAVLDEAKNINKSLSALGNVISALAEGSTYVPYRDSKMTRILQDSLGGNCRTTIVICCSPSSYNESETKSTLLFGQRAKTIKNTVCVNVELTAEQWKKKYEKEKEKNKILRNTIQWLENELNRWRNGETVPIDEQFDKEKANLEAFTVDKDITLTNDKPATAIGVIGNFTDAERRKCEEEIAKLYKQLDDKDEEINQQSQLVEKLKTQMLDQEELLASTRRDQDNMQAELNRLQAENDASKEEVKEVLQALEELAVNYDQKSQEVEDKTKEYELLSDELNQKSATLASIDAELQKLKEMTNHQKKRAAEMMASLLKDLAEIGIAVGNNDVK
The experiment is described as above. In kind it is biochemical. The conditions noted are these: for remaining activity at 0.1 µM: compound at 0.1 uM, ATP 10 µM, read-out: % Enzyme Activity (relative to DMSO controls) RET (V804M )-KIF5B.
Procedure: as §1

The target of experiment [4] is T4, RET-CCDC6 (PTC1) (Homo sapiens, UniProt P07949).
T4 construct: purchased Reaction Biology Corp
Described as above. The conditions noted are these: compound at 10 uM, ATP 1 µM. The class given is biochemical.
Procedure: as §1

Experiment [5] concerns the target T5, RET (G810S/M918T) (Homo sapiens, UniProt P07949, G810S/M918T).
T5 construct: purchased Reaction Biology Corp
The experiment is described as above. The class given is biochemical. Particulars: compound at 10 uM, ATP 1 µM.
Procedure: as §1

Experiment [6] concerns A-549. Description: Cell proliferation inhibition, Cell Counting Kit-8, non-small cell lung cancer cell line. The class given is cell-based. The conditions noted are these: A-549 cell line; 72 hours incubation; test concentration not given. For orientation: Tetrazolium dyes change colour on reduction, which living cells bring about.
The test system of experiment [7] is BaF3-RET(V804M). Description: Cell proliferation inhibition (GI50), Cell Counting Kit-8, Ba/F3 cell line. In kind it is cell-based, rodent. Particulars: Mus musculus, read-out: GI50 of BaF3-RET(V804M). On the procedure:
To evaluate the inhibitory activity of the compounds represented by Formula I or Formula IV according to the present invention against RET mutation-driven cell growth in the Ba/F3 cell line and against cell growth in the non-small cell lung cancer cell line A-549, the following experiment was performed.
Each cell line was seeded in a 96-well plate at 1×10^4 cells/90 µL/well, and 10 µL/well of culture medium containing each example and intermediate compound or DMSO control at 9 concentrations (1 nM to 100 µM) prepared by 3-fold serial dilutions was added to achieve a final concentration of 0 to 100 µM, followed by incubation for 72 hours in a 37°C, 5% CO2 incubator. After 72 hours of incubation, the compound-treated plates were removed, and Cell Counting Kit-8 solution was added at 10 µL/well and mixed well. The plates were then incubated for 2 hours in a CO2 incubator at 37°C, and the absorbance was measured at 450 nm using a microplate reader.
In addition, the data were expressed as a percentage relative to vehicle-treated cells, and GI50 values were calculated using GraphPad Prism 8.0 (GraphPad Software Inc., San Diego), and the results are shown in Table 8 below. As a control compound, ponatinib, a known RET inhibitor, was treated to calculate the GI50 values.

Where [8] appears, read: Data 1, read-out: % Enzyme Activity (relative to DMSO controls) RET-CCDC6 (PTC1) Data 1.
Setting [9] is: Data 2, read-out: % Enzyme Activity (relative to DMSO controls) RET-CCDC6 (PTC1) Data 2.
The mark [10] stands for this setting: Data 1, read-out: % Enzyme Activity (relative to DMSO controls) RET (G810S/M918T) Data 1.
Where [11] appears, read: Data 2, read-out: % Enzyme Activity (relative to DMSO controls) RET (G810S/M918T) Data 2.
Setting [12] is: BaF3, 72 hours incubation, Cell Counting Kit-8.

T4 sequence (P07949 whole entry, looked up): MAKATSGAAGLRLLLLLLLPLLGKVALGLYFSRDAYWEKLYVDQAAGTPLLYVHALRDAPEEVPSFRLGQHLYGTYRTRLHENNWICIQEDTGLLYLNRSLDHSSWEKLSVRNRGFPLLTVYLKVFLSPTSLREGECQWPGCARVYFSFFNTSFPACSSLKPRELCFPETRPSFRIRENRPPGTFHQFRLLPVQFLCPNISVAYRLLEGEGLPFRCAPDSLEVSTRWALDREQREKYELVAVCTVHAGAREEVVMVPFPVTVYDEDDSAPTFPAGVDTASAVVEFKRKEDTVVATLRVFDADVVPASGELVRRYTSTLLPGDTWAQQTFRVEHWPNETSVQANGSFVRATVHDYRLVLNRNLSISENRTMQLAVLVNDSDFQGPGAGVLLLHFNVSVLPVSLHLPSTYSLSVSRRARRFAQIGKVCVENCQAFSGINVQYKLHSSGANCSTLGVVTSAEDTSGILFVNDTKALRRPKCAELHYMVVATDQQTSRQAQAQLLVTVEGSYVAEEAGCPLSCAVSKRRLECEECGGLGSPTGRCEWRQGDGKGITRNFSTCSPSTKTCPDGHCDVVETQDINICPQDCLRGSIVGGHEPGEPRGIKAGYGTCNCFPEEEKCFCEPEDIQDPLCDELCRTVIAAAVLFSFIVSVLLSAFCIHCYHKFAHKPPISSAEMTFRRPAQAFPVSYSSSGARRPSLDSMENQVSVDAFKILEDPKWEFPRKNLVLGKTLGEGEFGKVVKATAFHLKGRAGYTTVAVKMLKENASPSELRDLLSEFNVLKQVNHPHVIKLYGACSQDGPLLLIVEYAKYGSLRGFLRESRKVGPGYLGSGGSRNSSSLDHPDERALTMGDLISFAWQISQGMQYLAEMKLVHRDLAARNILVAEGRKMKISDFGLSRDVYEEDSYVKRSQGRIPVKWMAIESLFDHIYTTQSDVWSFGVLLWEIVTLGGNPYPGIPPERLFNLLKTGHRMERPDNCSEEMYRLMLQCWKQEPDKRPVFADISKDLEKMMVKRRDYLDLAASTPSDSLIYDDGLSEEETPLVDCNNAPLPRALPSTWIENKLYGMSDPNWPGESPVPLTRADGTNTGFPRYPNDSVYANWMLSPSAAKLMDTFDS
T5 sequence (P07949 29-1114 G810S/M918T): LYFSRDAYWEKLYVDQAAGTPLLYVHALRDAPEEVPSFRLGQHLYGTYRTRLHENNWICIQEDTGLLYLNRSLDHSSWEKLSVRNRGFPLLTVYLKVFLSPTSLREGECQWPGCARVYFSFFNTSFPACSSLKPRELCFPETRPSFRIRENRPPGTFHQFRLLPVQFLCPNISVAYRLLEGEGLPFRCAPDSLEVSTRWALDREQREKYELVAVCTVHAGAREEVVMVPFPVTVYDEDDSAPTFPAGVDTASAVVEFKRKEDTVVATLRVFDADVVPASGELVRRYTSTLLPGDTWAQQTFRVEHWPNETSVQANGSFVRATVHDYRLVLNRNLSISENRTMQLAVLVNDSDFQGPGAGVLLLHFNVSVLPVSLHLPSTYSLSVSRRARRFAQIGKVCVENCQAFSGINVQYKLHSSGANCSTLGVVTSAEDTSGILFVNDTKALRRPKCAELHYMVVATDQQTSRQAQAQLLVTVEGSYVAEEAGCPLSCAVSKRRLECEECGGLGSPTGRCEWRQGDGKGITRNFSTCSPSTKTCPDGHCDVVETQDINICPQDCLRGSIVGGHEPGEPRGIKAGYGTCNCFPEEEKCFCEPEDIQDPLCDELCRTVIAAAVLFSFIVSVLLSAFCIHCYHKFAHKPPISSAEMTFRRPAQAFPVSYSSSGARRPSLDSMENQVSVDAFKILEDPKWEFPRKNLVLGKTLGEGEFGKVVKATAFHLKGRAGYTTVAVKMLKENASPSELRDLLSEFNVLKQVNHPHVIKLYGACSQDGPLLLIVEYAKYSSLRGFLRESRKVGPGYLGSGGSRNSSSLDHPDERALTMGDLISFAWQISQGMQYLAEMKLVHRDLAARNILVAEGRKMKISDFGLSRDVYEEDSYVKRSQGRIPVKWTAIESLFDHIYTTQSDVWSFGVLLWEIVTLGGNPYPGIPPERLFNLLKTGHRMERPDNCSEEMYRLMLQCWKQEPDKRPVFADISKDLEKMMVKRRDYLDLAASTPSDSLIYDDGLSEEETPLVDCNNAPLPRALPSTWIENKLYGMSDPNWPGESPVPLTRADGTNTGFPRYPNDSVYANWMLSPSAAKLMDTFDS
T2 sequence (P07949 29-1114 V804M): as the sequence (P07949 29-1114 G810S/M918T) above, with V776M, S782G, T890M counted along it
T1 sequence (P07949 29-1114 G810R): as the sequence (P07949 29-1114 G810S/M918T) above, with S782R, T890M counted along it

Turning to `CCNc1cc(C#CCN2CCOCC2)c2nccnc2c1` [Example 31, N-ethyl-8-(3-morpholinoprop-1-yn-1-yl)quinoxalin-6-amine], the remaining activity at 0.1 µM in experiment [1] is 98.5%; in experiment [2], 105%; in experiment [3], 109%. For the same compound, the remaining activity at 10 µM was determined as 14.8% in experiment [4] (setting [8]), 15.4% in experiment [4] (setting [9]), 61.7% in experiment [5] (setting [10]) and 61.2% in experiment [5] (setting [11]). Besides, in experiment [6], the “Cell Proliferation (% of control)” value came to 51.88%.

Take `Cc1ccc(C(=O)Nc2ccc(CN3CCN(C)CC3)c(C(F)(F)F)c2)cc1C#Cc1cnc2cccnn12` [Ponatinib, ponatinib, reference compound]: the concentration for 50% growth inhibition (GI50) (usually the concentration at which growth is held to half of that of the control) in experiment [7] (BaF3, 72 h) came out at 115 nM. In addition, the “Cell Proliferation (% of control)” value in experiment [6] is listed as -1.99%.

Regarding `CNc1cc(-c2ccc(N3CC(Oc4cccc(F)c4)C3)nc2)c2nccnc2c1` [Example 2, 8-(6-(3-(3-fluorophenoxy)azetidin-1-yl)pyridin-3-yl)-N-methylquinoxalin-6-amine], in experiment [1], the remaining activity at 0.1 µM came to 77.3%. In addition, the remaining activity at 10 µM in experiment [4] (setting [8]) was 1.38%; in experiment [4] (setting [9]) it was 0.23%; in experiment [5] (setting [10]), 0.05%; in experiment [5] (setting [11]), -0.43%. For the same compound, the GI50 in experiment [7] (setting [12]) is 943 nM. The “Cell Proliferation (% of control)” value in experiment [6] turned out to be 18.59%.

`CCNc1cc(-c2ccc(N3CC[C@H](NC(=O)c4ccccc4F)C3)nc2)c2nccnc2c1` [Example 12, (S)-N-(1-(5-(7-(ethylamino)quinoxalin-5-yl)pyridin-2-yl)pyrrolidin-3-yl)-2-fluorobenzamide]: the remaining activity at 0.1 µM came to 59.9% in experiment [1], 2.27% in experiment [2] and 5.5% in experiment [3]. Also, the remaining activity at 10 µM in experiment [4] (setting [8]) stood at 1.25%; in experiment [4] (setting [9]) it was 1.01%; in experiment [5] (setting [10]), 2.65%; in experiment [5] (setting [11]) it was 0.69%. Also, the 50% growth inhibitory concentration (GI50) in experiment [7] (setting [12]) was found to be 1060 nM. Further, the “Cell Proliferation (% of control)” value in experiment [6] is recorded as 41.67%.

Take `Nc1cc(-c2ccc(N3CC[C@H](NC(=O)c4ccccc4F)C3)nc2)c2nccnc2c1` [Example 10, (S)-N-(1-(5-(7-aminoquinoxalin-5-yl)pyridin-2-yl)pyrrolidin-3-yl)-2-fluorobenzamide]: the values for the remaining activity at 0.1 µM in experiment [1], in experiment [2] and in experiment [3] were 59.9%, 2.27% and 5.5%, respectively. Also, the IC50 (usually the point on the concentration scale where inhibition reaches its midpoint) in experiment [1] (read-out: Enzymatic inhibitory activity (IC50) nM G810R) came out at 44.7 nM; in experiment [2] (read-out: Enzymatic inhibitory activity (IC50) nM V804M), 0.5 nM. Further, the negative logarithm of the IC50 (pIC50) – broadly, the IC50 on a negative log10 scale, so that one unit is a factor of ten – in experiment [3] is 8.65. For the same compound, the remaining activity at 10 µM is 1.55% in experiment [4] (setting [8]), 0.99% in experiment [4] (setting [9]), -0.09% in experiment [5] (setting [10]) and -0.6% in experiment [5] (setting [11]). In experiment [6], the “Cell Proliferation (% of control)” value was determined as 32.59%.

In the case of `O=C(Nc1cc(-c2ccc(N3CC(Oc4cccc(F)c4)C3)nc2)c2nccnc2c1)c1ccco1` [Example 8, N-(8-(6-(3-(3-fluorophenoxy)azetidin-1-yl)pyridin-3-yl)quinoxalin-6-yl)furan-2-carboxamide], the remaining activity at 0.1 µM was 96.7% in experiment [1], 46% in experiment [2] and 65.1% in experiment [3]. The remaining activity at 10 µM in experiment [4] (setting [8]) stood at 2.53%; in experiment [4] (setting [9]), 1.8%; in experiment [5] (setting [10]), 13.6%; in experiment [5] (setting [11]), 12.9%. For the same compound, the “Cell Proliferation (% of control)” value in experiment [6] turned out to be 78.35%.

Regarding `CNc1cc(-c2ccc(N3CC[C@H](NC(=O)c4ccccc4F)C3)nc2)c2nccnc2c1` [Example 11, (S)-2-fluoro-N-(1-(5-(7-(methylamino)quinoxalin-5-yl)pyridin-2-yl)pyrrolidin-3-yl)benzamide], the remaining activity at 0.1 µM in experiment [1] was 56%. The remaining activity at 10 µM is 1.36% in experiment [4] (setting [8]), 1.07% in experiment [4] (setting [9]), -0.84% in experiment [5] (setting [10]) and -0.85% in experiment [5] (setting [11]). Also, the GI50 in experiment [7] (setting [12]) is 2120 nM. Moreover, in experiment [6], the “Cell Proliferation (% of control)” value is on record as 20.80%.

As for `CCNc1cc(Nc2cc(C)[nH]n2)c2nccnc2c1` [Example 32, N7-ethyl-N5-(5-methyl-1H-pyrazol-3-yl)quinoxaline-5,7-diamine], the remaining activity at 0.1 µM amounted to 96.6% in experiment [1], 88.7% in experiment [2] and 85.9% in experiment [3]. Further, the remaining activity at 10 µM in experiment [4] (setting [8]) came to 5.39%; in experiment [4] (setting [9]), 4.58%; in experiment [5] (setting [10]) it was 41.9%; in experiment [5] (setting [11]), 40.6%. Besides, the “Cell Proliferation (% of control)” value in experiment [6] is recorded as 92.91%.
